{"source": "patent US11062797B2", "about": "“Method and system for obtaining and using pharmacokinetic data in drug administration” (Continuous Precision Medicine, priority 2014, dated 2021)", "key": {"DISE patients": {"test_system": "DISE patients", "details": "cited from earlier work; for average time for the procedures: DeVito et al."}, "[1]": {"test_system": "endoscopic sedation patients", "details": "anesthetist-administered propofol sedation; cited from earlier work"}, "[2]": {"test_system": "patients scheduled for elective esophagogastroduodenoscopy (EGD)", "details": "for Maximum Effect Site: Cortinez model estimate; for Maximum Effect Site / Target Effect Site / Time to target: median (IQR); for Target Effect Site: at loss of responsiveness to nasopharyngeal airway placement; for patients with oxygen saturation values below 90%: 100% oxygen via Robertazzi airway", "description": "In addition to ASA standard monitors, respiratory inductance plethysmography (RIP) (Ambulatory Monitoring Inc, Armonk, N.Y.), SEDLine® patient state index (PSI) (Masimo Corp, Irvine, Calif.) and RAD87 pulse oximeter (Masimo Corp, Irvine, Calif.) were applied. All patients received 50 μg of fentanyl immediately prior to initiation of sedation. […] In the experimental arm, patient age and weight were used by the PRC algorithm to calculate bolus, infusion1, infusion2, and time for transition from infusion1 to infusion2. These numbers were reviewed by an investigator prior to initiation of sedation, and when the patient could tolerate airway placement, the software determined the maintenance infusion to maintain the effect-site concentration at the value existing at that time. Custom software written in Labview 2012 (National Instruments, Austin, Tex.) performed these calculations, transmitted the infusion rates to a Graseby 3400 pump (Marcal Medical, Millersville, Md.), and acquired data from the monitors.\nAll patients were preoxygenated using a Mapleson circuit at oxygen flows greater than 10 liters per minute. Following placement of the Robertazzi airway, the Mapleson circuit was connected to the airway via the connector from an endotracheal tube and the adjustable pressure limit valve closed, assuring continuous flow of 100% oxygen into the hypopharynx.\nIn experimental patients, the CRNA could request additional boluses or changes in infusion rates as they saw fit. […] This measure is reported in two ways. The first is termed “adjustment dose”, which is the cumulative absolute value of the difference between the intended trajectory and the actual administration. The second is the “intended ratio”, which is the ratio of the dose delivered on the intended trajectory and the actual administration. These measures are depicted in FIG. 7. In FIG. 7, the dotted line indicates the actual infusion rates, while the solid line indicates the intended trajectory (fixing the infusion rate at 300 μg/kg/min).\nVentilatory depression was assessed from respiratory inductance plethysmography signals. The signals were filtered by ensemble empirical mode decomposition employing 450 realizations and noise scaled to 40% of signal power. The dominant mode was used for the Huang-Hilbert Transform (HHT). Minute ventilation was computed as the product of the respiratory rate times the magnitude of volume change at one second intervals. Baseline ventilation was determined from several breaths prior to initiation of sedation; subsequent measurements were normalized by this baseline value. These values were grouped into one minute epochs and the median of values less than 100% obtained. Values above 100% were excluded for two reasons.\nOxygen saturation was acquired from the RAD87 at one second intervals, as was the patient state index. Obvious artifacts such as sensor dislodgement were excluded from analysis. Desaturation is reported as cumulative time below specified saturation in the range from 54% to 90%.\nEffect site estimates were calculated using the Cortinez model employing the nominal values, with an adjoined effect compartment. The ke0 was chosen to yield a time to peak effect of 1.6 minutes. MATLAB® code for the state-space implementation of this model with observation of the effect site is available on the OpenTCI website."}, "[3]": {"details": "Nominal Cortinez model; cited from earlier work"}, "patients with severe OSA": {"test_system": "patients with severe OSA", "description": "Ninety-seven (97) patients were enrolled in a prospective study of transoral robotic resection of the tongue base; the examples described below provided a secondary outcome measure of that study. […] The apnea-hypopnea index (AHI) for each patient was recorded from the sleep study. For each patient the saturation nadirs from the sleep study and DISE were paired for statistical analysis. […] The system utilizes the Cortinez pharmacokinetic model (Cortinez et al., Br J Anaesth. 2010; 105:448-56.) and the Johnson pharmacodynamic model (Johnson et al., Anesth Analg. 2008; 106:471-9.) to determine an infusion sequence comprised of a bolus, initial infusion, secondary infusion, and a time for transition from the initial to secondary infusion using the age and weight of the individual patient. This sequence minimizes the difference between the predicted probability of loss of responsiveness and a linear ramp. This is termed probability ramp control (PRC). A brief description of the mathematical approach can be found below. The MATLAB® program (an embodiment of the system) performed the calculations, indicated the time to perform the transition to the second infusion, and logged the time at which obstruction was noted.\nAll DISE studies were performed in an operating room with standard monitors and resuscitation equipment. A single otorhinolaryngologist performed each nasopharyngoscopy. […] All DISE patients received 2 liters per minute supplemental oxygen via a nasal cannula placed in the mouth. Supplemental oxygen was not used during polysomnography studies (as is typical for this procedure). Pulse oximetry data was recorded for subsequent analysis from a Nellcor pulse oximeter (Covidien, Mansfield, Mass.) at 30-second intervals by the DocuSys anesthesia record keeping system. […] A Baxter AS50 pump (Baxter, Deerfield, Ill.) was programmed with the initial bolus and infusion rates as determined by the control system. […] With the bronchoscope in position to observe the velopharynx, the sedation sequence proceeded until the onset of obstruction was noted. This was identified as the obstruction clinical endpoint. Observation of the pharynx was performed for a sufficient period to obtain images of the anatomic site(s) of obstruction. The infusion was then terminated and the patient allowed to recover. Patient characteristics and derived pharmacokinetic measures were assessed for normal distribution using the Lilliefors test at 5% significance level using the Statistics Toolbox of MATLAB® 8.0 (MathWorks, Natick, Mass.). […] Comparison of saturation nadirs from DISE and polysomnography was performed with both the paired and unpaired Student's t-test. […] No power analysis was performed for this study, as it was a secondary outcome measure for the larger study of transoral robotic surgery."}}, "note": "Where “and” joins values, the source holds several entries; their conditions need not be identical. Equal values may be shown once. Read-outs that look alike come from different tables or passages of the source."}
{"smiles": "CC(C)c1cccc(C(C)C)c1O", "note": "[propofol]", "values": [{"measurement": "average time for the procedures", "setting": "DISE patients; TCI group", "value": 15.2, "unit": "min"}, {"measurement": "patients demonstrating sedation instability", "setting": "DISE patients; TCI group", "value": 5, "unit": "%"}, {"measurement": "average time for the procedures", "setting": "DISE patients; manual control group", "value": 6.2, "unit": "min"}, {"measurement": "patients demonstrating sedation instability", "setting": "DISE patients; manual propofol bolus group", "value": 65, "unit": "%"}, {"measurement": "BIS values, mean and standard deviation", "setting": "[1]", "value": "72.1±15.1"}, {"measurement": "Maximum Effect Site", "setting": "[2]; Control (CRNA dosing)", "value": "6.1 (3.5) μg/ml"}, {"measurement": "Target Effect Site", "setting": "[2]; Control (CRNA dosing)", "value": "4.8 (1.6) μg/ml"}, {"measurement": "Time to target", "setting": "[2]; Control (CRNA dosing)", "value": "2 (2.2) min"}, {"measurement": "Maximum Effect Site", "setting": "[2]; Experimental (PRC)", "value": "5.3 (4.6) NS μg/ml"}, {"measurement": "Target Effect Site", "setting": "[2]; Experimental (PRC)", "value": "4.9 (2.9) NS μg/ml"}, {"measurement": "Time to target", "setting": "[2]; Experimental (PRC)", "value": "3.9 (1.6) min and 3.9 (1.6) * min"}, {"measurement": "additional time to achieve endoscope placement", "setting": "[2]; PRC system versus control", "value": 111, "unit": "s"}, {"measurement": "patients identified at targets below 3.9 μg/ml", "setting": "[2]; control group (CRNA dosing)", "value": "No control patients"}, {"measurement": "patients with oxygen saturation values below 90%", "setting": "[2]; control patients", "value": 3}, {"measurement": "patients identified at targets below 3.9 μg/ml", "setting": "[2]; experimental group (PRC)", "value": "5/20"}, {"measurement": "patients with targets below effect-site concentrations of 3.9 μg/ml", "setting": "[2]; experimental group (PRC)", "value": 20, "unit": "%"}, {"measurement": "patients with oxygen saturation values below 90%", "setting": "[2]; experimental patients", "value": 2}, {"measurement": "Q2", "setting": "[3]", "value": 3.2, "unit": "L/min"}, {"measurement": "V3", "setting": "[3]", "value": 53.8, "unit": "L"}, {"measurement": "median saturation nadir during DISE", "setting": "patients with severe OSA; 2 liters per minute supplemental oxygen, median ± IQR, polysomnography 81.0±11.25%", "value": "91.4±5.1", "unit": "%"}, {"measurement": "predicted effect-site concentration for obstruction", "setting": "patients with severe OSA; Cortinez model, ke0 for time to peak effect of 1.6 minutes", "value": "4.2 ± 1.3", "unit": "µg/mL"}, {"measurement": "median time to obstruction", "setting": "patients with severe OSA; DISE, PRC infusion, n=97, median (IQR)", "value": "3.8 (IQR 1.2) minutes"}, {"measurement": "mean predicted effect-site concentration of propofol at obstruction", "setting": "patients with severe OSA; DISE, PRC infusion, Cortinez model with adjoined effect compartment", "value": "4.2 ± 1.3", "unit": "µg/mL"}, {"measurement": "adverse events", "setting": "patients with severe OSA; DISE, all patients", "value": "no adverse events"}, {"measurement": "mean time to obstruction", "setting": "patients with severe OSA; control system according to Example 1", "value": 3.9, "unit": "min"}, {"measurement": "lowest saturation measured", "setting": "patients with severe OSA; oxygen at 2 liters per minute via oral cannula", "value": 74, "unit": "%"}, {"measurement": "median saturation nadir during DISE", "setting": "patients with severe OSA; sub-cohort of 7 patients whose nadir was not lower during polysomnography", "value": 85, "unit": "%"}]}
